# Laboratory results from US5500414A, “Derivatives of peptides usable as inhibitors of bacterial collagenases” (Commissariat a l'Energie Atomique, priority 1991, dated 1996).
# Molecular target: bacterial collagenase
# Test: Inhibition of bacterial collagenase; Ki from dissociation and association rate constants, substrate Fa--Leu--Gly--Pro--Ala
# Format: biochemical, Empedobacterium collagenolyticum
# Settings: ratio Koff/Kon, slow binding inhibitors, pH7 Tricine buffer
# Procedure: The activities of the different compounds A, B, C and D were determined on the one hand by measuring the association rate constant of the inhibitors to collagenase by the method of Morrison, J. & Walsh, C. T., 1987, Adv., Enzymol. Relat. Aeras Mol. Biol. applied in the case where the inhibitors are of the slow binding type and on the other hand by measuring the dissociation rate constants of the inhibitors of the enzyme--inhibitor complex. In this case, after allowing the collagenase to preincubate in the presence of an inhibitor excess, the thus formed enzyme--inhibitor complex is purified by gel filtration. The solution containing the purified complex is then diluted by a factor of 10,000 in a reference buffer and then, as a function of time, measurement takes place of the return of the activity of the collagenase, which represents the dissociation of the inhibitor of the enzyme--inhibitor complex.
# The inhibition constants given in the table correspond to the ratio of the dissociation rate constants Koff and the association rate constants Kon measured in this way. In all the activity measurement experiments we used as the synthetic substrate Fa--Leu--Gly--Pro--Ala in a pH7 Tricine buffer. The source of the bacterial collagenase used was the strain Empedobacterium collagenolyticum.
row,Substance,Ki
1,"Z--D,LPhe*--PO2 CH2 --CH2 --CO--Pro--Nle*,2Na^+ [Compound A]",12 nM
2,Z--Pro--Phe*--PO(OH)--CH2 --CH2 --CO--Pro--Nle* 2Na^+ [Compound B],80 nM
3,"Z,D,L-Phe*PCH2DL-Ala°ProNle°, 2Na^+ [F]",2350 nM
4,Z--Gly--Pro--Phe*--PO(OH)--CH2 --CH2 --CO--Pro--Nle*2Na^+,0.4 nM
